Tests used:
[1] = system: BJ cells; assay: mtDNA depletion by ddC in BJ primary fibroblasts, qPCR verification; assay type: cell-based, human; settings: for mtDNA levels, % of initial untreated levels: 2.5 μM or 5 μM ddC
Description: FIGS. 11A-11B show generation of mtDNA depleted primary fibroblast lines in BJ cells. FIG. 11A is a bar chart showing that a minimum concentration of 2.5 μM of 2′,3′ dideoxycytidine (ddC), a reverse transcriptase inhibitor, was required to deplete mtDNA to below 5% of the original level, three weeks from initiation of treatment. […] FIG. 11B is a line plot showing the information of FIG. 11A.
(§1) A 1000× stock of 2′,3′-dideoxycytidine (ddC, Sigma, Cat. #D5782) was prepared in water. BJ, ADF, and NDF cells cultured in complete media with 50 µg/ml uridine were added ddC to an appropriate final concentration. Cells were passaged every 3-4 d and fresh ddC was added over the course of 3 weeks. After ddC treatment, total DNA was extracted (Qiagen, Cat. #69504) and mtDNA quantified using SYBR Select Master Mix for CFX (Life Technologies, Cat. #4472942). mtDNA-encoded ND1 was probed with the following primers: forward: […] (SEQ ID NO: 1); reverse: […] (SEQ ID NO: 2). mtDNA levels were normalized to nuclear-encoded GAPDH using the following primers: forward: […] (SEQ ID NO: 3); reverse: […] (SEQ ID NO: 4). qPCR was run on a BioRad CFX Thermal Cycler using the following protocol: 1) 50° C. for 2 min, 2) 95° C. for 2 min, 3) 40 cycles-95° C. for 10 s and 60° C. for 45 s. Samples were compared by calculating ΔΔCT and fold differences.

[2] = system: Adult and neonatal human dermal fibroblast (HDF) cells; assay: mtDNA depletion by ddC in human dermal fibroblasts; assay type: cell-based; settings: 5 μM ddC, after sixteen days
Description: FIGS. 12A-12C show generation of mtDNA depleted human dermal fibroblasts cells. […] 143 Rho Null (lacking mtDNA) and a control are also shown. […] GAPDH expression, used as a reference gene, was also shown in adult and neonatal human dermal fibroblast (HDF) cells. FIG. 12B is a table showing depletion of mtDNA in HDF adult and HDF neonatal cells at days sixteen and thirty. FIG. 12C is a line plot showing the data of FIG. 12B.
as §1

[3] = system: BJs; assay: Mutation signature comparison of ddC-treated BJs vs BJ parent, 30X whole genome sequencing; assay type: cell-based, human; settings: for # SNVs / % of Total: 5 μM ddC treated BJs vs BJ parent
Description: A comparison of mutation signatures between 5 μM-ddC treated BJs and the BJ parent with 30× whole genome sequencing.

[4] = 5 μM ddC-treated BJs vs. BJ parent
[5] = ddC-treated cells, whole genome sequencing

SMILES: Nc1ccn([C@H]2CC[C@@H](CO)O2)c(=O)n1 [ddC, 2′,3′-dideoxycytidine]
- mtDNA levels, % of initial untreated levels ([1]; three weeks from initiation of treatment): below 0.5%
- mtDNA levels, % of initial untreated levels ([1]; two weeks): below 2%
- minimum concentration required to deplete mtDNA to below 5% of the original level ([1]; BJ cells, three weeks from initiation of treatment): 2.5 µM
- mtDNA depletion [2]: mtDNA depletion
- Mutation rate [3, 4]: 0.6/MB
- Non-synonymous mutations [3, 4]: 26
- # SNVs ([3]; Signature 5): 2,230
- % of Total ([3]; Signature 5): 42.0%
- # SNVs ([3]; Signature 8): 873
- % of Total ([3]; Signature 8): 16.0%
- # SNVs ([3]; Signature 9): 854
- % of Total ([3]; Signature 9): 16.0%
- # SNVs ([3]; Signature 16): 200
- % of Total ([3]; Signature 16): 4.0%
- # SNVs ([3]; Signature 18): 471
- % of Total ([3]; Signature 18): 9.0%
- abundance of non-synonymous mutations [3, 5]: low abundance
- changes in DNA copy number [3, 5]: no changes in DNA copy number
- chromosomal breaks [3, 5]: no chromosomal breaks

— US12590322B2, “Devices and methods for mitochondria replacement and for generating cellular therapeutics” (NanoCav, LLC, priority 2018, dated 2026)
